Assay results reported in patent publication US11524966B1 (Valo Early Discovery, Inc., priority 2017, dated 2022).
pIC50: −log10 of the molar value.

Target: T1, USP28 (His-tagged USP28-FL-mammalian) (Homo sapiens, UniProt Q96RU2)
T1 construct: Expression of USP28 (1-1077)-TEV-6*His (pTT5 vector); made in house; host or cells: Expi293f cells (pTT5 vector)
T1 sequence (Q96RU2 1-1077): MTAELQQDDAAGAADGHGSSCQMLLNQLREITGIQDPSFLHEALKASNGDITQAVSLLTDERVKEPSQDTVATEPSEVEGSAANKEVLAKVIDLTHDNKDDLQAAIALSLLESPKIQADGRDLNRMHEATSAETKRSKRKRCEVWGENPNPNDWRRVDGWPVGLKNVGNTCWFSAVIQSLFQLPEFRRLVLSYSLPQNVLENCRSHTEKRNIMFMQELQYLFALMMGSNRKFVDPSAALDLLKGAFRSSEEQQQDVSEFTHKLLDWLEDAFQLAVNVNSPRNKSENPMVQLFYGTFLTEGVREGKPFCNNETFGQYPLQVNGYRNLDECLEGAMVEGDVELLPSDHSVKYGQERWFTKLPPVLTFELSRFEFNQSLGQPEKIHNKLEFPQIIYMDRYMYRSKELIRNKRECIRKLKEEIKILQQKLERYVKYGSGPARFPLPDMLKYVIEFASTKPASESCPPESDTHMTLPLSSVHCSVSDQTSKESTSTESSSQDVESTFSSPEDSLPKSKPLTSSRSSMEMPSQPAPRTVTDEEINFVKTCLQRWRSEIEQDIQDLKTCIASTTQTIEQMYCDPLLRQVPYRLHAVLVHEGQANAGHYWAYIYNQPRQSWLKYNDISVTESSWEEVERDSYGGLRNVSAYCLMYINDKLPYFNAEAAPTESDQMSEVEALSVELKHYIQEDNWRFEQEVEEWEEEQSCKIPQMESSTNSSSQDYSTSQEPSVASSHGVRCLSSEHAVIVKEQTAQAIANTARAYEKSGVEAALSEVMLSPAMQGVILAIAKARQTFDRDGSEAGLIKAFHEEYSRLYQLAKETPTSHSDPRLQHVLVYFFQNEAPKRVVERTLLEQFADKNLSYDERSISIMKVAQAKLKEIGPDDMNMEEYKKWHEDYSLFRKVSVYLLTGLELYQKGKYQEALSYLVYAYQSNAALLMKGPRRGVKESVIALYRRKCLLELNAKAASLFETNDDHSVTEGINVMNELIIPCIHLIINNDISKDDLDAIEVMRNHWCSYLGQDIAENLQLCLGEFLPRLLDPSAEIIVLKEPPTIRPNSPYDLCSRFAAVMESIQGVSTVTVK
Test: Ubiquitin-Rhodamine 110 Assay for USP28 Activity, Example A-1(a)
Assay type: biochemical
Conditions: Ubiquitin-Rhodamine 110 assay, Example A-1(a); read-out: USP28 A-1(a) IC50 range
In short: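 Full-length His-tagged human USP28 (1-1077, Expi293f-expressed), […], with 25 nM Ub-Rh110 (<<Km) in pH 8.0 Tris buffer with BME, BGG, Triton X-100. 10-point dilutions (25 μM-1.3 nM), 45 min at room temperature, citric acid stop, fluorescence 485/535 nm; IC50 by 4-parameter fit.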

Row | SMILES | pIC50
1 | Cc1ccc2c(N)c(C(=O)N[C@H]3COc4cc(N5C[C@@H](N)[C@@]6(CCOC6)C5)ccc4C3)sc2n1 [Example 433, 3-amino-N-[(3R)-7-[(5R,9S)-9-amino-2-oxa-7-azaspiro[4.4]nonan-7-yl]-3,4-dihydro-2H-1-benzopyran-3-yl]-6-methylthieno[2,3-b]pyridine-2-carboxamide] | 7.30 to 9.00
2 | CN[C@@H]1CN(c2ccc3c(n2)CC[C@H](NC(=O)c2sc4nc(C)ccc4c2N)C3)C[C@H]1C(F)F [Example 377, 3-amino-N-[(6S)-2-[(3R,4S)-3-(difluoromethyl)-4-(methylamino)pyrrolidin-1-yl]-5,6,7,8-tetrahydroquinolin-6-yl]-6-methylthieno[2,3-b]pyridine-2-carboxamide] | 6.70 to 7.30
3 | Cc1ccc2c(N)c(C(=O)N[C@H]3CCc4nc(N5C[C@H]6COC[C@@H](C5)[C@@H]6N)ccc4C3)sc2n1 [Example 397, 3-amino-6-methyl-N-[(6S)-2-[(1R,5S,9s)-9-amino-3-oxa-7-azabicyclo[3.3.1]nonan-7-yl]-5,6,7,8-tetrahydroquinolin-6-yl]thieno[2,3-b]pyridine-2-carboxamide] | 6.70 to 7.30
4 | Cc1ccc2c(N)c(C(=O)N[C@H]3COc4cc(N5C[C@@H](N)[C@]6(CCOC6)C5)ccc4C3)sc2n1 [Example 432, 3-amino-N-[(3R)-7-[(5S,9S)-9-amino-2-oxa-7-azaspiro[4.4]nonan-7-yl]-3,4-dihydro-2H-1-benzopyran-3-yl]-6-methylthieno[2,3-b]pyridine-2-carboxamide] | 7.30 to 9.00
5 | CN[C@@H]1CN(c2ccc3c(n2)CC[C@H](NC(=O)c2sc4nc(C)ccc4c2N)C3)C[C@H]1COC (single isomer, unassigned) [Example 26-2] | 6.70 to 7.30
6 | CC(=O)N[C@@H]1CN(c2ccc3c(n2)CC[C@H](NC(=O)c2sc4nc(C)ccc4c2N)C3)C[C@H]1C(F)F [Example 372, 3-amino-N-[(6S)-2-[(3R,4S)-3-(difluoromethyl)-4-acetamidopyrrolidin-1-yl]-5,6,7,8-tetrahydroquinolin-6-yl]-6-methylthieno[2,3-b]pyridine-2-carboxamide] | 6.70 to 7.30
7 | Cc1ccc2c(N)c(C(=O)N[C@H]3CCc4nc(N5C[C@H](OC(C)C)[C@@H](N)C5)ncc4C3)sc2n1 [Example 271, 3-amino-N-[(6S)-2-[(3S,4S)-3-amino-4-(propan-2-yloxy)pyrrolidin-1-yl]-5,6,7,8-tetrahydroquinazolin-6-yl]-6-methylthieno[2,3-b]pyridine-2-carboxamide] | < 5.70
8 | Cc1ccc2c(N)c(C(=O)N[C@H]3CCc4nc(N5C[C@@H](N)[C@@]6(CCOC6)C5)ccc4C3)sc2n1 [Example 431, 3-amino-N-[(6S)-2-[(5R,9S)-9-amino-2-oxa-7-azaspiro[4.4]nonan-7-yl]-5,6,7,8-tetrahydroquinolin-6-yl]-6-methylthieno[2,3-b]pyridine-2-carboxamide] | 6.70 to 7.30
9 | CO[C@@]12CCN[C@H]1CN(c1ccc3c(n1)CC[C@H](NC(=O)c1sc4nc(C)ccc4c1N)C3)C2 [Example 434, N-[(6S)-2-[(3aR,6aS)-3a-methoxy-octahydropyrrolo[2,3-c]pyrrol-5-yl]-5,6,7,8-tetrahydroquinolin-6-yl]-3-amino-6-methylthieno[2,3-b]pyridine-2-carboxamide] | 6.70 to 7.30
10 | CO[C@H]1CN(c2ncc3c(n2)CC[C@H](NC(=O)c2sc4nc(C)ccc4c2N)C3)C[C@@H]1N [Example 186, 3-amino-N-[(6S)-2-[(3S,4S)-3-amino-4-methoxypyrrolidin-1-yl]-5,6,7,8-tetrahydroquinazolin-6-yl]-6-methylthieno[2,3-b]pyridine-2-carboxamide] | < 5.70
11 | COCC1(N)CN(c2ccc3c(c2)OC[C@H](NC(=O)c2sc4nc(C)ccc4c2N)C3)C1 [Example 373, 3-amino-N-[(3R)-7-[3-amino-3-(methoxymethyl)azetidin-1-yl]-3,4-dihydro-2H-1-benzopyran-3-yl]-6-methylthieno[2,3-b]pyridine-2-carboxamide] | 7.30 to 9.00
12 | Cc1ccc2c(N)c(C(=O)N[C@H]3COc4cc(N5C[C@@H](N)[C@@H]6OCC[C@@H]65)ccc4C3)sc2n1 [Example 425, N-[(3R)-7-[(3aS,6R,6aS)-6-amino-hexahydro-2H-furo[3,2-b]pyrrol-4-yl]-3,4-dihydro-2H-1-benzopyran-3-yl]-3-amino-6-methylthieno[2,3-b]pyridine-2-carboxamide] | 7.30 to 9.00
13 | CO[C@@]12CCN[C@H]1CN(c1ccc3c(c1)OC[C@H](NC(=O)c1sc4nc(C)ccc4c1N)C3)C2 [Example 289, N-[(3R)-7-[(3aR,6aS)-3a-methoxy-octahydropyrrolo[2,3-c]pyrrol-5-yl]-3,4-dihydro-2H-1-benzopyran-3-yl]-3-amino-6-methylthieno[2,3-b]pyridine-2-carboxamide] | 7.30 to 9.00
14 | Cc1ccc2c(N)c(C(=O)N[C@H]3CCc4nc(N5C[C@@H]6COC[C@]6(N)C5)ccc4C3)sc2n1 [Example 394, N-[(6S)-2-[(3aR,6aS)-3a-amino-hexahydro-1H-furo[3,4-c]pyrrol-5-yl]-5,6,7,8-tetrahydroquinolin-6-yl]-3-amino-6-methylthieno[2,3-b]pyridine-2-carboxamide] | 6.70 to 7.30
15 | Cc1ccc2c(N)c(C(=O)N[C@@H]3CCc4nc(N5C[C@@H](N)[C@H](C(F)F)C5)ncc4C3)sc2n1 [Example 382, 3-amino-N-[(6R)-2-[(3S,4R)-3-amino-4-(difluoromethyl)pyrrolidin-1-yl]-5,6,7,8-tetrahydroquinazolin-6-yl]-6-methylthieno[2,3-b]pyridine-2-carboxamide] | 5.70 to 6.70
16 | Cc1ccc2c(N)c(C(=O)N[C@H]3COc4nc(N5C[C@@H](N)[C@H](C(F)F)C5)ccc4C3)sc2n1 [Example 379, 3-amino-N-[(3R)-7-[(3S,4R)-3-amino-4-(difluoromethyl)pyrrolidin-1-yl]-2H,3H,4H-pyrano[2,3-b]pyridin-3-yl]-6-methylthieno[2,3-b]pyridine-2-carboxamide] | 5.70 to 6.70
17 | Cc1ccc2c(N)c(C(=O)N[C@H]3CCc4nc(N5C[C@H](N)C6(C5)OCCO6)ccc4C3)sc2n1 (single isomer, unassigned) [Example 29-1] | 5.70 to 6.70
18 | COCCO[C@@H]1CN(c2ccc3c(n2)CC[C@H](NC(=O)c2sc4nc(C)ccc4c2N)C3)C[C@H]1N (single isomer, unassigned) [Example 28-2] | 5.70 to 6.70
19 | COC[C@@H]1[C@@H](N)CCN1c1ccc2c(n1)CC[C@H](NC(=O)c1sc3nc(C)ccc3c1N)C2 [Example 420, 3-amino-N-[(6S)-2-[(2S,3S)-3-amino-2-(methoxymethyl)pyrrolidin-1-yl]-5,6,7,8-tetrahydroquinolin-6-yl]-6-methylthieno[2,3-b]pyridine-2-carboxamide] | 7.30 to 9.00
20 | CCn1ccc2cc(C(=O)N[C@H]3CCc4nc(N5C[C@H](N)[C@@H](C(F)(F)F)C5)ccc4C3)cnc21 [Example 421, N-[(6S)-2-[(3R,4S)-3-amino-4-(trifluoromethyl)pyrrolidin-1-yl]-5,6,7,8-tetrahydroquinolin-6-yl]-1-ethyl-1H-pyrrolo[2,3-b]pyridine-5-carboxamide] | 6.70 to 7.30
21 | CO[C@H]1CN(c2ncc3c(n2)CC[C@@H](NC(=O)c2sc4nc(C)cc(C)c4c2N)C3)C[C@@H]1N [Example 274, 3-amino-N-[(6R)-2-[(3S,4S)-3-amino-4-methoxypyrrolidin-1-yl]-5,6,7,8-tetrahydroquinazolin-6-yl]-4,6-dimethylthieno[2,3-b]pyridine-2-carboxamide] | 5.70 to 6.70
22 | Cc1cc(C)c2c(N)c(C(=O)N[C@H]3CCc4nc(N5C[C@H](OC(C)C)[C@@H](N)C5)ncc4C3)sc2n1 (single isomer, unassigned) [Example 31-1] | 6.70 to 7.30
23 | Cc1ccc2c(N)c(C(=O)N[C@H]3CCc4nc(N5C[C@H]6CCN[C@@H](C5)C6(F)F)ccc4C3)sc2n1 [Example 368, 3-amino-N-[(6S)-2-[(1S,5R)-9,9-difluoro-2,7-diazabicyclo[3.3.1]nonan-7-yl]-5,6,7,8-tetrahydroquinolin-6-yl]-6-methylthieno[2,3-b]pyridine-2-carboxamide] | 7.30 to 9.00
